Laboratory results published in the supplement of paper PMC10307832.

Experiments:
Assay in all cases: relative viability (nuclei count vs DMSO), 5 days (fraction); higher = more cells survive
[1] = compound: COc1cc(-c2nn([C@H]3CC[C@H](N4CCN(C(C)=O)CC4)CC3)c3ncnc(N)c23)ccc1NC(=O)c1cc2ccccc2n1C + CC(=O)Nc1cccc(-n2c(=O)n(C3CC3)c(=O)c3c(Nc4ccc(I)cc4F)n(C)c(=O)c(C)c32)c1 [Trametinib] (partner 0.02 µM)
In short: (§1)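 Relative viability is defined as nuclei in treated wells over nuclei in vehicle wells. Duplicate plates were run and medians reported. Lung cancer cell lines in 1536-well plates were dosed by pin tool one day after seeding, with one drug or with a fixed anchor-drug dose plus five library-drug doses (not always all listed) in √10 steps, and nuclei were counted after 5 days.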

Midostaurin + Crizotinib = compound: CO[C@@H]1[C@H](N(C)C(=O)c2ccccc2)C[C@H]2O[C@]1(C)n1c3ccccc3c3c4c(c5c6ccccc6n2c5c31)C(=O)NC4 [Midostaurin] + C[C@@H](Oc1cc(-c2cnn(C3CCNCC3)c2)cnc1N)c1c(Cl)ccc(F)c1Cl [Crizotinib] (partner 1 µM)
In short: as §1

[2] = compound: COc1cc(-c2nn([C@H]3CC[C@H](N4CCN(C(C)=O)CC4)CC3)c3ncnc(N)c23)ccc1NC(=O)c1cc2ccccc2n1C + Nc1nc2[nH]cc(CCc3ccc(C(=O)N[C@@H](CCC(=O)O)C(=O)O)cc3)c2c(=O)[nH]1 [Pemetrexed] (partner 0.2 µM)
In short: as §1

[3] = compound: COc1cc(-c2nn([C@H]3CC[C@H](N4CCN(C(C)=O)CC4)CC3)c3ncnc(N)c23)ccc1NC(=O)c1cc2ccccc2n1C + CS(=O)(=O)N1CCN(Cc2cc3nc(-c4cccc5[nH]ncc45)nc(N4CCOCC4)c3s2)CC1 [Pictilisib] (partner 1 µM)
In short: as §1

Midostaurin + Foretinib = compound: CO[C@@H]1[C@H](N(C)C(=O)c2ccccc2)C[C@H]2O[C@]1(C)n1c3ccccc3c3c4c(c5c6ccccc6n2c5c31)C(=O)NC4 [Midostaurin] + COc1cc2c(Oc3ccc(NC(=O)C4(C(=O)Nc5ccc(F)cc5)CC4)cc3F)ccnc2cc1OCCCN1CCOCC1 [Foretinib] (partner 0.25 µM)
In short: as §1

Cell Line | relative viability ([1]; first compound 0.0128 µM) | relative viability ([1]; first compound 0.04048 µM) | relative viability ([1]; first compound 0.128 µM) | relative viability ([1]; first compound 1.28 µM) | relative viability (Midostaurin + Crizotinib; first compound 0.01 µM) | relative viability (Midostaurin + Crizotinib; first compound 0.03162 µM) | relative viability (Midostaurin + Crizotinib; first compound 0.1 µM) | relative viability (Midostaurin + Crizotinib; first compound 0.3162 µM) | relative viability ([2]; first compound 0.0128 µM) | relative viability ([2]; first compound 0.04048 µM) | relative viability ([2]; first compound 0.128 µM) | relative viability ([2]; first compound 1.28 µM) | relative viability ([3]; first compound 0.0128 µM) | relative viability ([3]; first compound 0.04048 µM) | relative viability ([3]; first compound 0.128 µM) | relative viability ([3]; first compound 1.28 µM) | relative viability (Midostaurin + Foretinib; first compound 0.01 µM) | relative viability (Midostaurin + Foretinib; first compound 0.03162 µM) | relative viability (Midostaurin + Foretinib; first compound 0.1 µM) | relative viability (Midostaurin + Foretinib; first compound 0.3162 µM)
NCI-H1792 | 0.433 | 0.132 | 0.401 | 0.348 | 0.947 | 1.02 | 0.967 | 1.02 | 0.883 | 0.913 | 0.797 | 0.729 | 0.237 | 0.191 | 0.306 | 0.354 | – | – | – | –
HCC-44 | 1.19 | 0.716 | 1.07 | 1.03 | 0.747 | 0.787 | 0.697 | 0.627 | 0.719 | 0.742 | 0.607 | 0.687 | 0.675 | 0.67 | 0.542 | 0.542 | – | – | – | –
NCI-H1793 | 0.446 | 0.24 | 0.469 | 0.359 | – | – | – | – | 1.04 | 0.771 | 0.871 | 0.617 | 0.424 | 0.288 | 0.285 | 0.311 | 0.674 | 0.644 | 0.533 | 0.369
A549 | – | – | – | – | 0.796 | 0.665 | 0.589 | 0.26 | – | – | – | – | 0.538 | 0.63 | 0.429 | 0.501 | 0.871 | 0.781 | 0.939 | 0.99
NCI-H1563 | – | – | – | – | 0.817 | 0.872 | 0.85 | 0.834 | 0.755 | 0.778 | 0.853 | 0.582 | 0.682 | 0.641 | 0.656 | 0.606 | 0.985 | 0.976 | 0.847 | 0.785
NCI-H1395 | 1.02 | 0.945 | 0.967 | 0.667 | – | – | – | – | 0.819 | 0.81 | 0.763 | 0.59 | 0.578 | 0.711 | 0.512 | 0.486 | 1.12 | 1.07 | 0.992 | 1.1
NCI-H522 | 0.77 | 0.514 | 0.723 | 0.73 | – | – | – | – | 1 | 0.939 | 1.14 | 0.822 | – | – | – | – | – | – | – | –
IA-LM | – | – | – | – | 0.751 | 0.712 | 0.606 | 0.448 | – | – | – | – | 0.345 | 0.443 | 0.324 | 0.334 | 1.15 | 0.86 | 1.23 | 1.05
NCI-H1703 | – | – | – | – | 0.73 | 0.569 | 0.684 | 0.221 | – | – | – | – | 0.235 | 0.26 | 0.222 | 0.163 | 0.351 | 0.316 | 0.292 | 0.325
NCI-H727 | 0.415 | – | 0.37 | 0.341 | 0.861 | 0.524 | 0.729 | 0.459 | – | – | – | – | 0.355 | – | 0.401 | 0.301 | 1.11 | 0.932 | 0.829 | 0.846
SW 900 | 1.05 | 0.82 | 0.778 | 0.432 | – | – | – | – | 0.487 | 0.489 | 0.469 | 0.373 | – | – | – | – | 0.876 | 0.746 | 0.822 | 0.763
